According to patent US12661324B2, “Solid dispersion, pharmaceutical preparations, preparation method, and application thereof” (ASCENTAGE PHARMA (SUZHOU) CO., LTD., priority 2020, dated 2026):
Values after ≈ are worked out from the molar mass of the structure shown.

How the values were obtained:
[1] = Drug dissolution test, rotating basket method, 0.2% SDS solution; format: physicochemical; settings: 500 ml, 100 rpm
Method: Drug dissolution test was performed on the solid dispersion (rotating basket method, 0.2% SDS solution, 500 ml, 100 rpm). […] Under the same conditions, the drug dissolution of API (compound prepared in example 1) in 10 min, 30 min and 60 min were 7%, 13% and 22% respectively.

[2] = Equilibrium solubility test; format: physicochemical; settings: 37 °C, thermodynamic from solid
Method: After 2 and 24 hours of high-speed centrifugation, the supernatant was taken, and the concentration of API in the supernatant was determined by high-performance liquid chromatography.

[3] = Pharmacokinetic test in mice (Effect Example 3); format: in vivo; settings: mouse, plasma, po, male mice, single gavage
Method: Four groups of male mice were randomly divided into two groups: test article 1 (solid dispersion prepared in Example 7 and suspension prepared with reverse osmosis water as solvent), the dosages are 25 mg/kg and 100 mg/kg respectively; test article 2 (API prepared in example 1 and suspension prepared with aqueous solution containing 0.2% HPMC-E5), the dosages are 25 mg/kg and 100 mg/kg, respectively. The animals in each group were administered by single gavage.
All animals collected blood samples and separated plasma at 0.087 h, 0.25 h, 0.5 h, 1 h, 2 h, 4 h, 6 h, 8 h and 24 h after administration. All plasma samples were analyzed by LC-MS/Ms. the lower limit of quantification of the method was 10 ng/ml. The plasma concentration data were analyzed by non-compartmental model method (NCA) of metabolic kinetic data analysis software winnonlin8.0.0.3176, and the pharmacokinetic parameters were calculated to evaluate the kinetic characteristics of API in animals after administration.

[4] = Solubility in aqueous medium pH 1-7; format: physicochemical; settings: aqueous buffer, thermodynamic from solid, 37° C. for 24 hours, acidic or neutral medium pH 1-7
Source text: The compound of formula (I) is usually in crystalline form and has very low solubility. […] Even after high humidity (60%) and long-term (12 months) storage, the compound of formula (1) in the solid dispersion of the invention will not be transformed or degraded.

Row | drug dissolution ([1]; 10 min) | drug dissolution ([1]; 30 min) | drug dissolution ([1]; 60 min) | solubility at 2 h ([2]; FaSSIF) | solubility at 24 h ([2]; FaSSIF) | solubility at 2 h ([2]; FeSSIF) | solubility at 24 h ([2]; FeSSIF) | AUC(0-inf) ([3]; 25 mg/kg) | AUC(0-t) ([3]; 25 mg/kg) | Cmax ([3]; 25 mg/kg) | Tmax ([3]; 25 mg/kg) | half-life ([3]; 25 mg/kg) | AUC(0-inf) ([3]; 100 mg/kg) | AUC(0-t) ([3]; 100 mg/kg) | Cmax ([3]; 100 mg/kg) | Tmax ([3]; 100 mg/kg) | half-life ([3]; 100 mg/kg) | solubility at 24 h [4] | SMILES
1 | 7% | 13% | 22% | 1.3 µg/mL (≈ 1.47 µM) | 0.6 µg/mL (≈ 0.68 µM) | 2.5 µg/mL (≈ 2.83 µM) | 0.5 µg/mL (≈ 0.567 µM) | 637 ng·h/mL | 384 ng·h/mL | 82.2 ng/mL | 3.33 h | 7.41 h | 1120 ng·h/mL | 1100 ng·h/mL | 105 ng/mL | 1 h | 3.7 h |  | O=C(NS(=O)(=O)c1ccc(NC[C@H]2COCCO2)c([N+](=O)[O-])c1)c1ccc(N2CCN(CC3=C(c4ccc(Cl)cc4)CC4(CCC4)CC3)CC2)cc1Oc1cnc2[nH]ccc2c1 [API, 4-{4-{[6-(4-Chloro-phenyl)-spiro[3,5]nonane-6-ene-7-yl]methyl}-piperazine-1-yl}-N-{{3-nitro-4-[((2S)-[1,4]dioxane-2-ylmethyl)-amino]phenyl}sulfonyl}-2-(1H-pyrrolo[2,3-b]pyridin-5-yloxy)-benzamide]
2 |  |  |  |  |  |  |  |  |  |  |  |  |  |  |  |  |  | 0.3 to 0.6 µg/mL | O=C(NS(=O)(=O)c1ccc(NC[C@H]2COCCO2)c([N+](=O)[O-])c1)c1ccc(N2CCN(CC3=C(c4ccc(Cl)cc4)CC4(CCC4)CC3)CC2)cc1Oc1cnc2[nH]ccc2c1 [compound of formula (I), 4-{4-{[6-(4-Chloro-phenyl)-spiro[3,5]nonane-6-ene-7-yl]methyl}-piperazine-1-yl}-N-{{3-nitro-4-[((2S)-[1,4]dioxane-2-ylmethyl)-amino]phenyl}sulfonyl}-2-(1H-pyrrolo[2,3-b]pyridin-5-yloxy)-benzamide]
